Measured values reported in patent US5300279A, “Organic amine phosphonic acid complexes for the treatment of calcific tumors” (The Dow Chemical Company, priority 1990, dated 1994).

Key:
[1] = biolocalization of the radionuclide in rats (tissue distribution after tail vein injection); type: in vivo, male Sprague Dawley rats; settings: for Bone/Blood / Bone/Muscle: ratio of percent dose per gram
Description: Studies to determine the qualitative biodistribution of the various radionuclides were conducted by injecting the compositions into rats and obtaining the gamma ray images of the entire animal at various times up to two hours after injection.
Laboratory rats were injected with the above complex (50-100 μl) via the tail vein. After 2 hours, the animals were sacrificed by cervical dislocation and organs and tissues removed. Samples were counted with a NaI counter to determine the biolocalization of the radionuclide.

[2] = localization of radioactivity (composition judged unacceptable); type: in vivo; settings: Sm-153; species not stated
tumor = settings: female Irish Wolfhound, possible osteosarcoma; 0.97 mCi/kg
Description: An English Setter with a tumor in his pelvis was injected with approximately 19 mCi of a composition containing Sm-153-EDTMP. After 2 hours, the dog was imaged using a scintillation camera.
An Irish setter with undifferentiated sarcoma metastatic to bone was treated with 16 mCi (0.57 mCi/kg) of a composition containing Sm-153-EDTMP. […] After approximately 3 months, when signs of lameness began to reappear, the dog was given a second treatment of 15 mCi (0.49 mCi/kg), of a composition containing Sm-153-EDTMP.
A female Irish Wolfhound with a possible osteosarcoma on the left distal radius was injected with a composition containing ^166 Ho-EDTMP (0.97 mCi/kg).

[3] = Ho-166, Table X, time not stated, average of 3 rats
[4] = Ho-166, two hours, comparative, average of 2 rats (MDP, HEDP, PYP), 1 rat (IDP, HDP)
[5] = Lu-177 (Ex. 14, 15; 5 rats) or Ho-166 (Ex. 16; 3 rats), two hour
[6] = Sm-153, rats, 2 hours, average of 5 rats
[7] = Sm-153, two hours, comparative, average of 5 rats (MDP, HEDP), 3 rats (PYP, IDP)
[8] = Gd-159, two hour, average of five rats
[9] = Yb-175, rats, two hour, average of 5 rats

SMILES: CC(C)N(CCN(CP(=O)(O)O)CP(=O)(O)O)CP(=O)(O)O.[166Ho+3] [Example 31]
- % Dose in Blood [1, 3]: 0.22 % Dose
- % Dose in Kidney [1, 3]: 0.44 % Dose
- % Dose in Liver [1, 3]: 0.28 % Dose
- % Dose in Muscle [1, 3]: 0.68 % Dose
- % Dose in Skeleton [1, 3]: 65 % Dose
- % Dose in Spleen [1, 3]: 0.01 % Dose
- Bone/Blood [1, 3]: 245
- Bone/Muscle [1, 3]: 520

SMILES: O=P(O)(O)CN(CCO)CP(=O)(O)O.[153Sm+3]
- localization of radioactivity in the liver [2]: a significant portion of the radioactivity localized in the liver

SMILES: O=P(O)(O)CP(=O)(O)O.[166Ho+3] [Ho-166 MDP, reference compound]
- % Dose In Blood [1, 4]: 1.5 % Dose
- % Dose In Bone [1, 4]: 1 % Dose
- % Dose In Liver [1, 4]: 64 % Dose
- Bone/Blood ([1]; Ho-166, two hours, comparative): 0.5
- Bone/Muscle ([1]; Ho-166, two hours, comparative): 6

SMILES: O=P(O)(O)CN(CCN(CP(=O)(O)O)CP(=O)(O)O)CP(=O)(O)O.[177Lu+3] [Example 14]
- % Dose in Blood [1, 5]: 0.10 % Dose
- % Dose in Kidneys [1, 5]: 0.28 % Dose
- % Dose in Liver [1, 5]: 0.48 % Dose
- % Dose in Muscle [1, 5]: 0.44 % Dose
- % Dose in Skeleton [1, 5]: 51 % Dose
- Bone/Blood [1, 5]: 500
- Bone/Muscle [1, 5]: 1380

SMILES: O=P(O)(O)CN(CCN(CP(=O)(O)O)CP(=O)(O)O)Cc1ccccc1.[166Ho+3] [Example 33]
- % Dose in Blood [1, 3]: 0.09 % Dose
- % Dose in Kidney [1, 3]: 0.34 % Dose
- % Dose in Liver [1, 3]: 0.13 % Dose
- % Dose in Muscle [1, 3]: 0.31 % Dose
- % Dose in Skeleton [1, 3]: 65 % Dose
- % Dose in Spleen [1, 3]: 0.01 % Dose
- Bone/Blood [1, 3]: 542
- Bone/Muscle [1, 3]: 1093

SMILES: O=P(O)(O)CN(CCN(CP(=O)(O)O)CP(=O)(O)O)CCN(CP(=O)(O)O)CP(=O)(O)O.[153Sm+3] [Example 4]
- % Dose in Blood [1, 6]: 0.16 % Dose
- % Dose in Liver [1, 6]: 0.27 % Dose
- % Dose in Skeleton [1, 6]: 30 % Dose
- % Dose in Urine [1, 6]: 74 % Dose
- Bone/Blood [1, 6]: 224
- Bone/Muscle [1, 6]: 220

SMILES: O=P(O)(O)NP(=O)(O)O.[153Sm+3] [Sm-153 IDP, reference compound]
- % Dose In Blood [1, 7]: 0.04 % Dose
- % Dose In Bone [1, 7]: 0.6 % Dose
- % Dose In Liver [1, 7]: 36 % Dose
- Bone/Blood ([1]; Sm-153, two hours, comparative): 11
- Bone/Muscle ([1]; Sm-153, two hours, comparative): 8

SMILES: O=P(O)(O)CN(CCN(CCN(CP(=O)(O)O)CP(=O)(O)O)CCN(CP(=O)(O)O)CP(=O)(O)O)CP(=O)(O)O.[153Sm+3] [Example 8]
- % Dose in Blood [1, 6]: 0.25 % Dose
- % Dose in Liver [1, 6]: 0.18 % Dose
- % Dose in Skeleton [1, 6]: 28 % Dose
- % Dose in Urine [1, 6]: 65 % Dose
- Bone/Blood [1, 6]: 80
- Bone/Muscle [1, 6]: 410

SMILES: O=P(O)(O)OP(=O)(O)O.[153Sm+3] [Sm-153 PYP, reference compound]
- % Dose In Blood [1, 7]: 0.23 % Dose
- % Dose In Bone [1, 7]: 2 % Dose
- % Dose In Liver [1, 7]: 73 % Dose
- Bone/Blood ([1]; Sm-153, two hours, comparative): 7
- Bone/Muscle ([1]; Sm-153, two hours, comparative): 15

SMILES: CC(O)(P(=O)(O)O)P(=O)(O)O.[166Ho+3] [Ho-166 HEDP, reference compound]
- % Dose In Blood [1, 4]: 10.1 % Dose
- % Dose In Bone [1, 4]: 25 % Dose
- % Dose In Liver [1, 4]: 1.8 % Dose
- Bone/Blood ([1]; Ho-166, two hours, comparative): 2
- Bone/Muscle ([1]; Ho-166, two hours, comparative): 17

SMILES: O=P(O)(O)CN(CCN(CP(=O)(O)O)CP(=O)(O)O)CP(=O)(O)O.[159Gd+3] [Example 19]
- % Dose in Blood [1, 8]: 0.15 % Dose
- % Dose in Kidneys [1, 8]: 0.33 % Dose
- % Dose in Liver [1, 8]: 0.25 % Dose
- % Dose in Muscle [1, 8]: 0.56 % Dose
- % Dose in Skeleton [1, 8]: 57 % Dose
- Bone/Blood [1, 8]: 305
- Bone/Muscle [1, 8]: 577

SMILES: O=P(O)(O)CN(CCO)CCN(CP(=O)(O)O)CP(=O)(O)O.[175Yb+3] [Example 11]
- % Dose in Blood [1, 9]: 0.231 % Dose
- % Dose in Liver [1, 9]: 0.214 % Dose
- % Dose in Skeleton [1, 9]: 56 % Dose
- Bone/Blood [1, 9]: 190
- Bone/Muscle [1, 9]: 572

SMILES: O=P(O)(O)OP(=O)(O)O.[166Ho+3] [Ho-166 PYP, reference compound]
- % Dose In Blood [1, 4]: 0.63 % Dose
- % Dose In Bone [1, 4]: 3 % Dose
- % Dose In Liver [1, 4]: 67 % Dose
- Bone/Blood ([1]; Ho-166, two hours, comparative): 4
- Bone/Muscle ([1]; Ho-166, two hours, comparative): 13

SMILES: O=P(O)(O)CN(CCN(CP(=O)(O)O)CP(=O)(O)O)CCN(CP(=O)(O)O)CP(=O)(O)O.[175Yb+3] [Example 10]
- % Dose in Blood [1, 9]: 0.116 % Dose
- % Dose in Liver [1, 9]: 0.112 % Dose
- % Dose in Skeleton [1, 9]: 25 % Dose
- Bone/Blood [1, 9]: 179
- Bone/Muscle [1, 9]: 366

SMILES: O=P(O)(O)CN(CP(=O)(O)O)CP(=O)(O)O.[175Yb+3] [Example 13]
- % Dose in Blood [1, 9]: 0.204 % Dose
- % Dose in Liver [1, 9]: 0.236 % Dose
- % Dose in Skeleton [1, 9]: 63 % Dose
- Bone/Blood [1, 9]: 256
- Bone/Muscle [1, 9]: 876

SMILES: O=P(O)(O)NP(=O)(O)O.[166Ho+3] [Ho-166 IDP, reference compound]
- % Dose In Blood [1, 4]: 0.28 % Dose
- % Dose In Bone [1, 4]: 2 % Dose
- % Dose In Liver [1, 4]: 65 % Dose
- Bone/Blood ([1]; Ho-166, two hours, comparative): 6
- Bone/Muscle ([1]; Ho-166, two hours, comparative): 17

SMILES: O=P(O)(O)CN(CCN(CP(=O)(O)O)CP(=O)(O)O)CP(=O)(O)O.[175Yb+3] [Example 9]
- % Dose in Blood [1, 9]: 0.074 % Dose
- % Dose in Liver [1, 9]: 0.138 % Dose
- % Dose in Skeleton [1, 9]: 50 % Dose
- Bone/Blood [1, 9]: 562
- Bone/Muscle [1, 9]: 619

SMILES: O=P(O)(O)C(O)P(=O)(O)O.[166Ho+3] [H0-166 HDP, reference compound]
- % Dose In Blood [1, 4]: 0.04 % Dose
- % Dose In Bone [1, 4]: 0.2 % Dose
- % Dose In Liver [1, 4]: 2 % Dose
- Bone/Blood ([1]; Ho-166, two hours, comparative): 4
- Bone/Muscle ([1]; Ho-166, two hours, comparative): 4

SMILES: O=P(O)(O)CN(CCN(CP(=O)(O)O)CP(=O)(O)O)CP(=O)(O)O.[166Ho+3] [Example 16]
- additional survival (tumor): 9 months
- survival compared with usual expected life (tumor): greater than the usual expected life of a dog with osteosarcoma
- % Dose in Blood [1, 5]: 0.03 % Dose
- % Dose in Kidneys [1, 5]: 0.26 % Dose
- % Dose in Liver [1, 5]: 0.05 % Dose
- % Dose in Muscle [1, 5]: 0.10 % Dose
- % Dose in Skeleton [1, 5]: 48 % Dose
- Bone/Blood [1, 5]: 1114
- Bone/Muscle [1, 5]: 2292

SMILES: O=P(O)(O)CN(CCO)CCN(CP(=O)(O)O)CP(=O)(O)O.[153Sm+3] [Example 6]
- % Dose in Blood [1, 6]: 0.035 % Dose
- % Dose in Liver [1, 6]: 0.45 % Dose
- % Dose in Skeleton [1, 6]: 57 % Dose
- % Dose in Urine [1, 6]: 50 % Dose
- Bone/Blood [1, 6]: 1300
- Bone/Muscle [1, 6]: 1300

SMILES: O=P(O)(O)CN(CCO)CCN(CP(=O)(O)O)CP(=O)(O)O.[177Lu+3] [Example 15]
- % Dose in Blood [1, 5]: 0.17 % Dose
- % Dose in Kidneys [1, 5]: 0.30 % Dose
- % Dose in Liver [1, 5]: 1.9 % Dose
- % Dose in Muscle [1, 5]: 0.56 % Dose
- % Dose in Skeleton [1, 5]: 58 % Dose
- Bone/Blood [1, 5]: 370
- Bone/Muscle [1, 5]: 570

SMILES: O=P(O)(O)CN(CCO)CCN(CP(=O)(O)O)CP(=O)(O)O.[159Gd+3] [Example 20]
- % Dose in Blood [1, 8]: 0.14 % Dose
- % Dose in Kidneys [1, 8]: 0.58 % Dose
- % Dose in Liver [1, 8]: 0.57 % Dose
- % Dose in Muscle [1, 8]: 0.76 % Dose
- % Dose in Skeleton [1, 8]: 60 % Dose
- Bone/Blood [1, 8]: 335
- Bone/Muscle [1, 8]: 548

SMILES: CN(CCN(CP(=O)(O)O)CP(=O)(O)O)CP(=O)(O)O.[166Ho+3] [Example 29]
- % Dose in Blood [1, 3]: 0.12 % Dose
- % Dose in Kidney [1, 3]: 0.30 % Dose
- % Dose in Liver [1, 3]: 0.14 % Dose
- % Dose in Muscle [1, 3]: 0.34 % Dose
- % Dose in Skeleton [1, 3]: 68 % Dose
- % Dose in Spleen [1, 3]: 0.01 % Dose
- Bone/Blood [1, 3]: 470
- Bone/Muscle [1, 3]: 1133

SMILES: CC(O)(P(=O)(O)O)P(=O)(O)O.[153Sm+3] [Sm-153 HEDP, reference compound]
- % Dose In Blood [1, 7]: 13 % Dose
- % Dose In Bone [1, 7]: 21 % Dose
- % Dose In Liver [1, 7]: 3.5 % Dose
- Bone/Blood ([1]; Sm-153, two hours, comparative): 1
- Bone/Muscle ([1]; Sm-153, two hours, comparative): 11

SMILES: O=P(O)(O)CP(=O)(O)O.[153Sm+3] [Sm-153 MDP, reference compound]
- % Dose In Blood [1, 7]: 0.23 % Dose
- % Dose In Bone [1, 7]: 2 % Dose
- % Dose In Liver [1, 7]: 85 % Dose
- Bone/Blood ([1]; Sm-153, two hours, comparative): 9
- Bone/Muscle ([1]; Sm-153, two hours, comparative): 7
